# Data: patent publication US11370804B2, “Complex of gadolinium and a chelating ligand derived from a diastereoisomerically enriched PCTA and preparation and purification process” (GUERBET, priority 2020, dated 2022)
# Assays:
# [1] = decomplexation kinetics (kinetic inertia) in acidic aqueous solution, pH 1.2, 37° C.; assay type: physicochemical; conditions: same conditions (pH 1.2, 37° C.), comparative
# Description: Besides, iso4 is the group of isomers which has the best kinetic inertia (also known as kinetic stability) among the four groups isolated by the inventors. Specifically, the inventors evaluated the kinetic inertia of the four groups of isomers by studying their decomplexation kinetics in acidic aqueous solution (pH=1.2), at 37° C. The half-life time values (T1/2) which were determined for each of the groups of isomers are indicated in table 1 below, the half-life time corresponding to the time after which 50% of the amount of complex initially present has been dissociated, according to the following decomplexation reaction (equation 2): […]
# [2] = as described in WO 2014/174120 / for comparative purposes; cited from earlier work
kinetic inertia [1],"kinetic inertia (dissociation, in words) [1]",SMILES,"log (Ktherm), stability constant [2]"
18 h,,O=C([O-])CN1CCN(CC(=O)[O-])CCN([C@H](CO)[C@H](O)CO)CCN(CC(=O)[O-])CC1.[Gd+3] (racemic) [gadobutrol],
96 h,,"O=C([O-])CN1CCN(CC(=O)[O-])CCN(CC(=O)O)CCN(CC(=O)[O-])CC1.[Gd+3] [DOTA-Gd, gadolinium complex of 1,4,7,10-tetraazacyclododecane-N,N′,N″,N′″-tetraacetic acid]",25.6
,dissociate instantaneously,CNC(=O)CN(CCN(CCN(CC(=O)[O-])CC(=O)NC)CC(=O)[O-])CC(=O)[O-].[Gd+3] [gadodiamide],
,dissociate instantaneously,O=C([O-])CN(CCN(CC(=O)[O-])CC(=O)O)CCN(CC(=O)[O-])CC(=O)O.[Gd+3] [gadopentetate],
